Experimental data as given in US8497278B2, “Imidazo[1,2-a]pyridine compounds” (priority 2008, dated 2013).

test system: central benzodiazepine receptors; experiment: Central benzodiazepine receptor binding (test of Speth et al.); settings: 1000 nM of the compound
Summary of the method: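 Values are percent inhibition of central benzodiazepine receptor binding at 1000 nM compound (initial single-point screen at 1.0E-09, 1.0E-07 and 1.0E-05 M). Speth et al. binding test; nonspecific binding defined with excess unlabelled ligand and subtracted from total.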

| SMILES | % Inhibition at 1000 nM for CBZD |
| --- | --- |
| Cc1ccc(-c2nc3ccc(C)cn3c2CN2CCN(C)C2=O)cc1 [Compound 92, 1-methyl-3-((6-methyl-2-p-tolylH-imidazo[1,2-a]pyridin-3-yl)methyl)imidazolidin-2-one] | ++ (percentage of inhibition of central BZD site binding is greater than 80% in the presence of 1000 nM of the compound) |
| COC(=O)c1nn(Cc2c(-c3ccc(Cl)cc3)nc3ccccn23)c2ccccc12 [Compound 34, Methyl 1-((2-(4-chlorophenyl)imidazo[1,2-a]pyridin-3-yl)methyl)-1H-indazole-3-carboxylate] | + (percentage of inhibition of central BZD site binding is greater than 50% but less than 80% in the presence of 1000 nM of the compound) |
| O=C1C=C(N2CCCCC2)CN1Cc1c(-c2ccc(Cl)cc2)nc2ccccn12 [Compound 239, 1-((2-(4-chlorophenyl)imidazo[1,2-a]pyridin-3-yl)methyl)-4-(piperidin-1-yl)-1H-pyrrol-2(5H)-one] | ++ (percentage of inhibition of central BZD site binding is greater than 80% in the presence of 1000 nM of the compound) |
| Cc1ccc(-c2nc3ccc(C)cn3c2Cn2c(C)c(C)sc2=S)cc1 [Compound 130, 4,5-Dimethyl-3-(6-methyl-2-p-tolyl-imidazo[1,2-a]pyridin-3-ylmethyl)-3H-thiazole-2-thione] | ++ (percentage of inhibition of central BZD site binding is greater than 80% in the presence of 1000 nM of the compound) |
| Cc1ccc(-c2nc3ccc(C)cn3c2COc2cccnc2)cc1 [Compound 175, 6-Methyl-3-(pyridin-3-yloxymethyl)-2-p-tolyl-imidazo[1,2-a]pyridine] | ++ (percentage of inhibition of central BZD site binding is greater than 80% in the presence of 1000 nM of the compound) |
| COC(=O)c1cc2occc2n1Cc1c(-c2ccc(Cl)cc2)nc2ccccn12 [Compound 33, Methyl 4-((2-(4-chlorophenyl)imidazo[1,2-a]pyridin-3-yl)methyl)-4H-furo[3,2-b]pyrrole-5-carboxylate] | ++ (percentage of inhibition of central BZD site binding is greater than 80% in the presence of 1000 nM of the compound) |
| CN(C)C(=O)c1ncn(Cc2c(-c3ccc(Cl)cc3)nc3ccccn23)n1 [Compound 75, 1-((2-(4-chlorophenyl)imidazo[1,2-a]pyridin-3-yl)methyl)-N,N-dimethyl-1H-1,2,4-triazole-3-carboxamide] | ++ (percentage of inhibition of central BZD site binding is greater than 80% in the presence of 1000 nM of the compound) |
| Cl.Clc1ccc(-c2nc3ccc(Cl)cn3c2CNc2ncccn2)cc1 [Compound 156, N-((6-chloro-2-(4-chlorophenyl)H-imidazo[1,2-a]pyridin-3-yl)methyl)pyrimidin-2-amine hydrochloride] | ++ (percentage of inhibition of central BZD site binding is greater than 80% in the presence of 1000 nM of the compound) |
| Fc1ccc(-c2nc3ccccn3c2Cn2ccnn2)cc1 [Compound 48, 3-((1H-1,2,3-triazol-1-yl)methyl)-2-(4-fluorophenyl)H-imidazo[1,2-a]pyridine] | ++ (percentage of inhibition of central BZD site binding is greater than 80% in the presence of 1000 nM of the compound) |
| Cc1ccc(-c2nc3ccc(C)cn3c2Cn2cnc(Cl)c2Cl)cc1 [Compound 3, 3-((4,5-Dichloro-1H-imidazol-1-yl)methyl)-6-methyl-2-p-tolylH-imidazo[1,2-a]pyridine] | + (percentage of inhibition of central BZD site binding is greater than 50% but less than 80% in the presence of 1000 nM of the compound) |
| Cc1ccc(-c2nc3ccc(C)cn3c2Cn2c(C)nc3ccccc32)cc1 [Compound 14, 2-Methyl-1-((6-methyl-2-p-tolylH-imidazo[1,2-a]pyridin-3-yl)methyl)-1H-benzo[d]imidazole] | − (percentage of inhibition of central BZD site binding is less than 50% in the presence of 1000 nM of the compound) |
| O=c1[nH]c(Cc2c(-c3ccc(F)cc3)nc3ccc(F)cn23)no1 [Compound 236, 3-((6-fluoro-2-(4-fluorophenyl)imidazo[1,2-a]pyridin-3-yl)methyl)-1,2,4-oxadiazol-5(4H)-one] | ++ (percentage of inhibition of central BZD site binding is greater than 80% in the presence of 1000 nM of the compound) |
| O=C1COc2ccccc2N1Cc1c(-c2ccc(Cl)cc2)nc2ccccn12 [Compound 124, 4-((2-(4-chlorophenyl)imidazo[1,2-a]pyridin-3-yl)methyl)-2H-benzo[b][1,4]oxazin-3(4H)-one] | ++ (percentage of inhibition of central BZD site binding is greater than 80% in the presence of 1000 nM of the compound) |
| Fc1ccc(-c2nc3ccc(Cl)cn3c2CNc2nc(F)cc(F)n2)cc1 [Compound 169, N-((6-Chloro-2-(4-fluorophenyl)imidazo[1,2-a]pyridin-3-yl)methyl)-4,6-difluoropyrimidin-2-amine] | ++ (percentage of inhibition of central BZD site binding is greater than 80% in the presence of 1000 nM of the compound) |
| Cc1ccc(-c2nc3ccc(C)cn3c2CSc2nncn2C)cc1 [Compound 176, 3-((4-methyl-4H-1,2,4-triazol-3-ylthio)methyl)-6-methyl-2-p-tolylH-imidazo[1,2-a]pyridine] | ++ (percentage of inhibition of central BZD site binding is greater than 80% in the presence of 1000 nM of the compound) |
| CC(C)(C)OC(=O)N1CCCC1c1ccnc(NCc2c(-c3ccc(F)cc3)nc3ccc(Cl)cn23)n1 (stereo not shown) [Compound 194, Tert-butyl 2-(2-((6-chloro-2-(4-fluorophenyl)imidazo[1,2-a]pyridin-3-yl)methylamino)pyrimidin-4-yl)pyrrolidine-1-carboxylate] | + (percentage of inhibition of central BZD site binding is greater than 50% but less than 80% in the presence of 1000 nM of the compound) |
| CCC1=C(C)CN(Cc2c(-c3ccc(C)cc3)nc3ccc(C)cn23)C1=O [Compound 93, 3-ethyl-4-methyl-1-((6-methyl-2-p-tolyl-H-imidazo[1,2-a]pyridin-3-yl)methyl)-1H-pyrrol-2(5H)-one] | ++ (percentage of inhibition of central BZD site binding is greater than 80% in the presence of 1000 nM of the compound) |
| Cc1ccc(-c2nc3ccc(C)cn3c2Cn2cccc(C)c2=O)cc1 [Compound 97, 3-methyl-1-((6-methyl-2-p-tolylH-imidazo[1,2-a]pyridin-3-yl)methyl)pyridin-2(1H)-one] | ++ (percentage of inhibition of central BZD site binding is greater than 80% in the presence of 1000 nM of the compound) |
| Cc1ccc(-c2nc3ccc(C)cn3c2CSc2cccs2)cc1 [Compound 178, 6-Methyl-3-(thiophen-2-ylsulfanylmethyl)-2-p-tolyl-imidazo[1,2-a]pyridine] | + (percentage of inhibition of central BZD site binding is greater than 50% but less than 80% in the presence of 1000 nM of the compound) |
